Experimental data from patent publication US20010044445A1, “AZOLE INHIBITORS OF CYTOKINE PRODUCTION” (priority 1999, published 2001).

Legend:
IL-2 = experiment: CD3 and CD28 Activation of Peripheral Blood T Cells and Determination of Secreted IL-2 Levels (C28 HU Assay); format: cell-based, Human; conditions: PBMC stimulated with anti-CD3 and anti CD28 mAbs, 24 hour; for inhibition at 1 µM: Homo sapiens, concentration 1 μM (in c2), read-out: % Inhibition of IL-2 secretion (At concentrations of 1, 10, or 100 μM)
Description: Human peripheral blood mononuclear cells were cultured in RPMI 1640 medium supplemented with 10 μg/ml gentamicin, 50 μM 2-mercaptoethanol, 1X MEM non-essential amino acids (Sigma Chemical Co., St. Louis, Mo.), 100 U/ml sodium penicillin G, 100 μg/ml streptomycin sulfate, 2 mM L-glutamine, 1 mM sodium pyruvate (Life Technologies, Grand Island, N.Y.) and 10% fetal bovine serum (Hyclone, Logan, Utah) at 37° C. with 5% CO2.
Human peripheral blood mononuclear cells (PBMC) were isolated by Ficoll-Hypaque seperation. PBMCs were stimulated with a combination of immobilized anti-CD3 and soluble anti CD28 mAbs as described in Faltynek, et al. J. Enzyme Inhibition 1995, 9, 111-122, hereby incorporated by reference. Following a 24 hour incubation, cell supernatants were harvested and IL-2 levels were determined. 100 μl of 5 μg/ml monoclonal murine anti-human IL-2 antibody (Biosource International) in D-PBS was added to 96 well Maxisorb plates (Nunc) and incubated at 4° C. overnight. Plates were washed 4 times with D-PBS containing 0.05% Tween 20 (wash buffer) and blocked with D-PBS containing 1% BSA and 10 mM NaN3 (Diluent/Blocking buffer) for 1-3 hours at room temperature or overnight at 4° C. Plates were washed and recombinant human IL-2 diluted (at 10,000, 5,000, 2,500, 1,250, 625, 312.5, 156.25, 78, 39, 20 pg/ml) in diluent/blocking buffer containing a matched percentage of complete RPMI 1640 medium as the unknown samples. Tissue culture supernatant at various dilutions were added in triplicate at 100 μl/well. Plates were incubated for 2 hours at room temperature and washed 4 times with wash buffer. 100 pl of rabbit anti-human IL-2 (10 μg/ml, Genzyme) was added and incubated for 1 hour at room temperature. The incubation was followed by 4 washes and subsequent addition of 100 pl of 1:2000 dilution of alkaline phosphatase-conjugated goat anti-rabbit F(ab′)2 (Biosource International). After 1 hour the plates were washed 4 times and 100 μl of pNPP (Southern Biotech or Sigma) at 1 mg/ml in buffer was added. Color development was allowed to proceed at room temperature for 20 minutes before addition of 50 μl of 2 N NaOH. Absorbance at 405 nm was determined using a plate reader (Molecular Devices). IL-2 concentrations were calcualted using SoftMax (Molecular Devices) based on the IL-2 standard solutions.

[1] = tested on: Human peripheral blood mononuclear cells; experiment: Human Concanavalin-A Proliferation Assay (Con HU Assay); format: cell-based; conditions: Homo sapiens, PBMC, concanavalin-A stimulated human PBMC; for inhibition at 100 µM / inhibition at 10 µM / inhibition at 1 µM: 72 h, 3 days, read-out: % Inhibition of proliferation (at concentrations of 1,10, or 100 μm); for inhibition at 100 µM: concentration 100 μm (in parentheses in the cell); for IC50: tritiated thymidine; for inhibition at 10 µM: concentration 10 μm (in parentheses in the cell); for inhibition at 1 µM: concentration 1 μm (in parentheses in the cell)
Outline: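 Histopaque-isolated human PBMC (50,000/well) were pre-incubated 15 min with compounds, then stimulated with concanavalin-A at 2.5 μg/ml final for 3 days at 37 °C, 5% CO2. Proliferation measured by 6 h pulse with 0.5 μCi/well [3H]thymidine and beta counting.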

| SMILES | melting point [°C] | IC50 [1] [nM] | further results |
| --- | --- | --- | --- |
| O=C(Nc1ccc(-n2nc(C(F)(F)F)cc2C(F)(F)F)cc1)C12CC3CC(CC(C3)C1)C2 [Example 62] |  |  | IC50 (IL-2; IL-2 secretion): 5040 nM |
| O=C(CCC(=O)c1ccc(F)cc1)Nc1ccc(-n2nc(C(F)(F)F)cc2C(F)(F)F)cc1 [Example 152, N-[4-[3,5-bis(trifluoromethyl)-1H-pyrazol-1-yl]phenyl]-4-fluoro-γ-oxobenzenebutanamide] | 156 to 158 |  | inhibition at 1 µM (IL-2): 3% |
| CC(C)(Oc1ccc(Cl)cc1)C(=O)Nc1ccc(-n2nc(C(F)(F)F)cc2C(F)(F)F)cc1 [Example 155, N-[4-[3,5-bis(trifluoromethyl)-1H-pyrazol-1-yl]phenyl]-2-(4-chlorophenoxy)-2-methylpropanamide] |  |  | inhibition at 1 µM (IL-2): 8% |
| O=C(Nc1ccc(-n2nc(C(F)(F)F)cc2C(F)(F)F)cc1)Nc1ccc(C(F)(F)F)cc1 [Example 33, N-[4-[3,5-bis(trifluoromethyl)-1H-pyrazol-1-yl]phenyl]-N′-[4-(trifluoromethyl)phenyl]urea] |  |  | inhibition at 1 µM (IL-2): 6% |
| O=C(Nc1ccc(-n2nc(C(F)(F)F)cc2C(F)(F)F)cc1)c1cnnc2ccccc12 [Example 118, N-[4-[3,5-bis(trifluoromethyl)-1H-pyrazol-1-yl]phenyl]-4-cinnolinecarboxamide] |  |  | inhibition at 1 µM (IL-2): 27% |
| Cc1c(Cl)cccc1NC(=O)Nc1ccc(-n2nc(C(F)(F)F)cc2C(F)(F)F)cc1 [Example 38, N-[4-[3,5-bis(trifluoromethyl)-1H-pyrazol-1-yl]phenyl]-N′-(3-chloro-2-methylphenyl)urea] | 193 to 196 |  | inhibition at 1 µM (IL-2): 16% |
| Fc1ccc(NCc2ccc(-n3nc(C(F)(F)F)cc3C(F)(F)F)cc2)cc1 [Example 94, 4-[3,5-Bis(trifluoromethyl)-1H-pyrazol-1-yl]-N-(4-fluorophenyl)benzenemethanamine] | 102 to 103 |  | inhibition at 10 µM [1]: 3% |
| Cc1ccc(C(=O)Nc2ccc(-n3nc(C(F)(F)F)cc3C(F)(F)F)cc2)cc1 [Example 100, N-[4-[3,5-bis (trifluoromethyl)-1H-pyrazol-1-yl]phenyl]-4-methylbenzamide] | 225 to 226 | 2150 | inhibition at 100 µM [1]: 75% |
| Fc1ccc(CNc2ccc(-n3nc(C(F)(F)F)cc3C(F)(F)F)cc2)cc1 [Example 84, N-[4-[3,5-bis(trifluoromethyl)-1H-pyrazol-1-yl]phenyl]-4-fluorobenzenemethanamine] | 92 to 94 | 712 | inhibition at 1 µM [1]: 76% |
| O=C(Nc1ccc(-n2nc(C(F)(F)F)cc2C(F)(F)F)c(C(F)(F)F)c1)c1ccc(Cl)cc1 [Example 271, N-[4-[3,5-bis(trifluoromethyl)-1H-pyrazol-1-yl]-3-(trifluoromethyl)phenyl]-4-chlorobenzamide] | 65 to 67 |  | inhibition at 1 µM [1]: 14% |
| O=C(Nc1ccc(-n2nc(C(F)(F)F)cc2C(F)(F)F)cc1)c1ccc(I)cc1 [Example 69, N-[4-[3,5-bis(trifluoromethyl)-1H-pyrazol-1-yl]phenyl]-4-iodobenzamide] | 196 to 198 | 506 | inhibition at 100 µM [1]: 98% |
| CSCCC(=O)Nc1ccc(-n2nc(C(F)(F)F)cc2C(F)(F)F)cc1 [Example 65, N-[4-[3,5-bis(trifluoromethyl)-1H-pyrazol-1-yl]phenyl]-3-(methylthio)propanamide] | 122 to 123 | 1820 | inhibition at 100 µM [1]: 98% |
| O=C(Nc1ccc(-n2nc(C(F)(F)F)cc2C(F)(F)F)cc1)c1ccccc1C(=O)c1ccccc1 [Example 22, 2-Benzoyl-N-[4-[3,5-bis(trifluoromethyl)-1H-pyrazol-1-yl]phenyl]benzamide] | 204 to 205 |  | inhibition at 1 µM [1]: 14% |
| O=C(Nc1ccc(-n2nc(C(F)(F)F)cc2C(F)(F)F)cc1)C1CCOC1 (stereo not shown) [Example 243, N-[4-[3,5-bis(trifluoromethyl)-1H-pyrazol-1-yl]phenyl]tetrahydro-3-furancarboxamide] | 193 to 194 | 390 | inhibition at 10 µM [1]: 99% |

More lines, main results first:

| melting point [°C] | SMILES | IC50 [1] [nM] | further results |
| --- | --- | --- | --- |
| 163 to 164 | Cc1nnsc1C(=O)Nc1ccc(-n2nccc2C)cc1 [Example 285, 4-Methyl-N-[4-(5-methyl-1H-pyrazol-1-yl)phenyl]-1,2,3-thiadiazole-5-carboxamide] |  | inhibition at 1 µM (IL-2): 26% |
| 211 to 212 | CCOC(=O)c1cccc(NC(=O)Nc2ccc(-n3nc(C(F)(F)F)cc3C(F)(F)F)cc2)c1 [Example 13, ethyl 3-[[[[4-[3,5-bis(trifluoromethyl)-1H-pyrazol-1-yl]phenyl]amino]carbonyl]amino]-benzoate] | 2840 | inhibition at 100 µM [1]: 99% |
| 178 to 179 | O=C(Nc1ccc(-n2nc(C(F)(F)F)cc2C(F)(F)F)cc1)c1ccc(F)cc1C(F)(F)F [Example 201, N-[4-[3,5-bis(trifluoromethyl)-1H-pyrazol-1-yl]phenyl]-4-fluoro-2-(trifluoromethyl)benzamide] | 364 | inhibition at 10 µM [1]: 100% |
| 110 to 112 | O=C(Nc1ccc(-n2nc(C(F)(F)F)cc2C(F)(F)F)cc1)c1cccnc1F [Example 164, N-[4-[3,5-bis(trifluoromethyl)-1H-pyrazol-1-yl]phenyl]-2-fluoro-3-pyridinecarboxamide] | 39 | inhibition at 10 µM [1]: 99% |
| 216 to 218 | O=C(/C=C/c1cccs1)Nc1ccc(-n2nc(C(F)(F)F)cc2C(F)(F)F)cc1 [Example 171, (E)-N-[4-[3,5-bis(trifluoromethyl)-1H-pyrazol-1-yl]phenyl]-3-(2-thienyl)-2-propenamide] |  | inhibition at 1 µM [1]: 12% |
| 187 to 188 | COc1cncc(Cl)c1C(=O)Nc1ccc(-n2nc(C(F)(F)F)cc2C(F)(F)F)cc1 [Example 291, N-(4-(3,5-bis(trifluoromethyl)-1H-pyrazol-1-yl)phenyl)-3-chloro-5-methoxyisonicotinamide] | 411 |  |
| 126 to 128 | O=C(Nc1ccc(-n2nc(C(F)(F)F)cc2C(F)(F)F)cc1)c1ccc(F)cc1F [Example 135, N-[4-[3,5-bis(trifluoromethyl)-1H-pyrazol-1-yl]phenyl]-2,4-difluorobenzamide] | 207 | inhibition at 100 µM [1]: 100% |
| 213 to 214 | O=C(Nc1ccc(-n2nc(C(F)(F)F)cc2C(F)(F)F)cc1)c1cnns1 [Example 244, N-[4-[3,5-bis(trifluoromethyl)-1H-pyrazol-1-yl]phenyl]-1,2,3-thiadiazole-5-carboxamide] | 523 | inhibition at 10 µM [1]: 94% |
| 204 to 205 | N#Cc1cccc(NC(=O)Nc2ccc(-n3nc(C(F)(F)F)cc3C(F)(F)F)cc2)c1 [Example 16, N-[4-[3,5-bis(trifluoromethyl)-1H-pyrazol-1-yl]phenyl]-N′-(3-cyanophenyl)urea] | 4190 | inhibition at 100 µM [1]: 100% |
| 207 to 209 | O=C(Nc1ccc(-n2nc(C(F)(F)F)cc2C(F)(F)F)cc1)Nc1ccc(Cl)c([N+](=O)[O-])c1 [Example 79, N-[4-[3,5-bis(trifluoromethyl)-1H-pyrazol-1-yl]phenyl]-N′-(4-chloro-3-nitrophenyl)urea] |  | inhibition at 1 µM [1]: 9% |
